Values after ≈ are worked out from the molar mass of the structure shown.
What was measured:
[1] = test system: EMT6; assay: Antitumor activity against mouse EMT6 cells xenografted in BALB/c mouse model assessed as tumor growth inhibition at 2.5 mg/kg,ip administered every 3 days for 14 consecutive days relative to control; type: functional; design: scale not given: the % may be the effect or the level left; details: time 14 day
[2] = Stability in mouse plasma assessed as parent compound remaining at 5 ug/ml measured after 120 mins by LC-MS/MS analysis; type: ADME, cell-free; details: at 5 µg/mL, read-out: Stability
[3] = Stability in mouse plasma assessed as parent compound remaining at 1 ug/ml measured after 10 mins by LC-MS/MS analysis; type: ADME, cell-free; details: at 1 µg/mL, read-out: Stability
[4] = Metabolic stability in mouse liver microsomes assessed as hepatic clearance at 1 uM measured upto 60 mins in presence of NADPH by LC-MS/MS analysis; type: ADME, Microsome; details: 1 h
[5] = test system: HepG2; assay: Cytotoxicity against human HepG2 cells measured after 72 hrs by MTT assay; type: functional, cell-based; details: HepG2, 72 h
[6] = Stability in mouse plasma assessed as parent compound remaining at 5 ug/ml measured after 30 mins by LC-MS/MS analysis; type: ADME, cell-free; details: at 5 µg/mL, read-out: Stability
[7] = test system: Staphylococcus aureus; assay: Antibacterial activity against methicillin-resistant Staphylococcus aureus ATCC 43300 incubated for 16 to 18 hrs by CLSI based broth dilution method; type: functional; details: time 16-18 hrs
[8] = Stability in mouse plasma assessed as parent compound remaining at 5 ug/ml measured after 60 mins by LC-MS/MS analysis; type: ADME, cell-free; details: at 5 µg/mL, read-out: Stability
[9] = test system: HGC-27; assay: Cytotoxicity against human HGC-27 cells measured after 72 hrs by MTT assay; type: functional, cell-based; details: HGC-27, 72 h
[10] = Stability in mouse plasma assessed as parent compound remaining at 5 ug/ml measured after 20 mins by LC-MS/MS analysis; type: ADME, cell-free; details: at 5 µg/mL, read-out: Stability
[11] = Toxicity in BALB/c mouse xenografted with mouse EMT6 cells assessed as effect on body weight at 5 mg/kg, ip measured on day 14 (reference value: 21.6 +/-0.6g); type: organism-based; details: in vivo, 336 h, time 14 day
[12] = Toxicity in BALB/c mouse xenografted with mouse EMT6 cells assessed as effect on body weight at 2.5 mg/kg, ip measured on day 1 (reference value: 18.5 +/-0.5g); type: organism-based; details: in vivo, 24 h, time 1 day
[13] = Toxicity in BALB/c mouse xenografted with mouse EMT6 cells assessed as effect on body weight at 5 mg/kg, ip measured on day 1 (reference value: 18.5 +/-0.5g); type: organism-based; details: in vivo, 24 h, time 1 day
[14] = test system: EMT6; assay: Antitumor activity against mouse EMT6 cells xenografted in BALB/c mouse model assessed as tumor growth inhibition at 5 mg/kg,ip administered every 3 days for 14 consecutive days relative to control; type: functional; design: scale not given: the % may be the effect or the level left; details: time 14 day
[15] = Stability in mouse plasma assessed as parent compound remaining at 1 ug/ml measured after 240 mins by LC-MS/MS analysis; type: ADME, cell-free; details: at 1 µg/mL, read-out: Stability
[16] = Metabolic stability in mouse liver microsomes assessed as half life at 1 uM measured upto 60 mins in presence of NADPH by LC-MS/MS analysis; type: ADME, Microsome
[17] = Stability in mouse plasma assessed as parent compound remaining at 1 ug/ml measured after 45 mins by LC-MS/MS analysis; type: ADME, cell-free; details: at 1 µg/mL, read-out: Stability
[18] = test system: EMT6; assay: Antitumor activity against mouse EMT6 cells xenografted in BALB/c mouse model assessed as tumor weight at 5 mg/kg,ip administered every 3 days for 14 consecutive days (reference value: 1.53 +/-0.26g); type: functional; details: time 14 day
[19] = Stability in mouse plasma assessed as parent compound remaining at 5 ug/ml measured after 1440 mins by LC-MS/MS analysis; type: ADME, cell-free; details: at 5 µg/mL, read-out: Stability
[20] = test system: Escherichia coli; assay: Antibacterial activity against Escherichia coli ATCC 25922 incubated for 16 to 18 hrs by CLSI based broth dilution method; type: functional; details: time 16-18 hrs
[21] = test system: HCT-116; assay: Cytotoxicity against human HCT-116 cells measured after 72 hrs by MTT assay; type: functional, cell-based; details: HCT-116, 72 h
[22] = AUC (0 to infinity) in ICR mouse at 10 mg/kg, ip measured after 5 to 24 hrs post administration by LC-MS/MS analysis; type: ADME, organism-based; design: time upper 24 hrs, dose 10 mg/kg, time lower 5 hrs, route ip; details: ICR, in vivo
[23] = Stability in mouse plasma assessed as parent compound remaining at 1 ug/ml measured after 1440 mins by LC-MS/MS analysis; type: ADME, cell-free; details: at 1 µg/mL, read-out: Stability
[24] = test system: Enterococcus faecalis; assay: Antibacterial activity against Enterococcus faecalis ATCC 29212 incubated for 16 to 18 hrs by CLSI based broth dilution method; type: functional; details: time 16-18 hrs
[25] = target: T1, Dihydrofolate reductase (Homo sapiens) (UniProt P00374); assay: Inhibition of human DHFR at 1 uM incubated for 10 mins in presence of NADPH by colorimetry based analysis relative to control
T1 sequence (whole entry): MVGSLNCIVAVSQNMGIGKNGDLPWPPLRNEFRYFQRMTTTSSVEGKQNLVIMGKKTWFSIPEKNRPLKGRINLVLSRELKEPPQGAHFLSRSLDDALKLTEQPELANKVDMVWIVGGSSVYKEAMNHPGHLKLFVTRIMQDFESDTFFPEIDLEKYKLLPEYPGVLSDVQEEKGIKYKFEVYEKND

[26] = Half life in ICR mouse at 10 mg/kg, ip measured after 5 to 24 hrs post administration by LC-MS/MS analysis; type: ADME, organism-based; details: in vivo, time 5-24 hrs
[27] = Stability in mouse plasma assessed as parent compound remaining at 5 ug/ml measured after 240 mins by LC-MS/MS analysis; type: ADME, cell-free; details: at 5 µg/mL, read-out: Stability
[28] = test system: Acinetobacter baumannii; assay: Antibacterial activity against Acinetobacter baumannii ATCC 19606 incubated for 16 to 18 hrs by CLSI based broth dilution method; type: functional; details: time 16-18 hrs
[29] = Stability in mouse plasma assessed as parent compound remaining at 1 ug/ml measured after 30 mins by LC-MS/MS analysis; type: ADME, cell-free; details: at 1 µg/mL, read-out: Stability
[30] = test system: EMT6; assay: Antitumor activity against mouse EMT6 cells xenografted in BALB/c mouse model assessed as tumor weight at 2.5 mg/kg,ip administered every 3 days for 14 consecutive days (reference value: 1.53 +/-0.26g); type: functional; details: time 14 day
[31] = Toxicity in BALB/c mouse xenografted with mouse EMT6 cells assessed as effect on body weight at 2.5 mg/kg, ip measured on day 14 (reference value: 21.6 +/-0.6g); type: organism-based; details: in vivo, 336 h, time 14 day
[32] = Stability in mouse plasma assessed as parent compound remaining at 1 ug/ml measured after 20 mins by LC-MS/MS analysis; type: ADME, cell-free; details: at 1 µg/mL, read-out: Stability
[33] = test system: MCF7; assay: Cytotoxicity against human MCF7 cells measured after 72 hrs by MTT assay; type: functional, cell-based; details: MCF7, 72 h
[34] = Toxicity in BALB/c mouse xenografted with mouse EMT6 cells at 2.5 mg/kg, ip administered every 3 days for 14 consecutive days; type: organism-based; details: in vivo, 336 h, time 14 day
[35] = Stability in mouse plasma assessed as parent compound remaining at 5 ug/ml measured after 10 mins by LC-MS/MS analysis; type: ADME, cell-free; details: at 5 µg/mL, read-out: Stability
[36] = Metabolic stability in mouse liver microsomes assessed as intrinsic clearance at 1 uM measured upto 60 mins in presence of NADPH by LC-MS/MS analysis; type: ADME, Microsome; details: read-out: CLH
[37] = Stability in mouse plasma assessed as parent compound remaining at 1 ug/ml measured after 120 mins by LC-MS/MS analysis; type: ADME, cell-free; details: at 1 µg/mL, read-out: Stability
[38] = Stability in mouse plasma assessed as parent compound remaining at 5 ug/ml measured after 45 mins by LC-MS/MS analysis; type: ADME, cell-free; details: at 5 µg/mL, read-out: Stability
[39] = Stability in mouse plasma assessed as parent compound remaining at 1 ug/ml measured after 60 mins by LC-MS/MS analysis; type: ADME, cell-free; details: at 1 µg/mL, read-out: Stability
[40] = test system: Staphylococcus aureus; assay: Antibacterial activity against Staphylococcus aureus ATCC 29213 incubated for 16 to 18 hrs by CLSI based broth dilution method; type: functional; details: time 16-18 hrs
[41] = test system: Staphylococcus epidermidis; assay: Antibacterial activity against Staphylococcus epidermidis ATCC 12228 incubated for 16 to 18 hrs by CLSI based broth dilution method; type: functional; details: time 16-18 hrs
[42] = AUC (0 to t) in ICR mouse at 10 mg/kg, ip measured after 5 to 24 hrs post administration by LC-MS/MS analysis; type: ADME, organism-based; design: time 5-24 hrs, dose 10 mg/kg, route ip; details: ICR, in vivo
[43] = Tmax in ICR mouse at 10 mg/kg, ip measured after 5 to 24 hrs post administration by LC-MS/MS analysis; type: ADME, organism-based; details: in vivo, time 5-24 hrs
[44] = test system: EMT6; assay: Antitumor activity against mouse EMT6 cells xenografted in ip dosed BALB/c mouse model assessed as delay in tumor progression administered every 3 days for 14 consecutive days; type: functional, organism-based; details: time 14.0 day

Structure (SMILES): Cc1cc2c3c(N)nc(N)nc3ccc2n1Cc1nc2ccccc2s1
- Activity [1]: 71%
- remaining at 2 h, 5 ug/ml [2]: 97.3%
- remaining at 10 min, 1 ug/ml [3]: 99.6%
- CLH [4]: 38.3 mL/min/kg
- IC50 [5]: 180 nM
- remaining at 0.5 h, 5 ug/ml [6]: 98.3%
- MIC [7]: 0.25 µg/mL (≈ 0.694 µM)
- remaining at 1 h, 5 ug/ml [8]: 97.8%
- IC50 [9]: 540 nM
- remaining at 20 min, 5 ug/ml [10]: 98.6%
- Activity [11]: 17.6 g
- Activity [12]: 18.4 g
- Activity [13]: 18.3 g
- Activity [14]: 37.7%
- remaining at 4 h, 1 ug/ml [15]: 98.5%
- half-life at 1 µM [16]: 1.37 h
- remaining at 0.75 h, 1 ug/ml [17]: 98.9%
- Activity [18]: 0.95 g
- remaining at 24 h, 5 ug/ml [19]: 97%
- MIC [20]: 1 µg/mL (≈ 2.77 µM)
- IC50 [21]: 1950 nM
- AUC(0-inf) [22]: 2740 ng·h/mL
- remaining at 24 h, 1 ug/ml [23]: 97.3%
- MIC [24]: 0.5 µg/mL (≈ 1.39 µM)
- inhibition [25]: 99.1%
- half-life [26]: 9.81 h
- remaining at 4 h, 5 ug/ml [27]: 97.5%
- MIC [28]: 4 µg/mL (≈ 11.1 µM)
- remaining at 0.5 h, 1 ug/ml [29]: 99.1%
- Activity [30]: 0.44 g
- Activity [31]: 14.9 g
- remaining at 20 min, 1 ug/ml [32]: 99.3%
- IC50 [33]: 430 nM
- Activity [34]: Non-Toxic
- remaining at 10 min, 5 ug/ml [35]: 99%
- microsomal CLint at 1 µM [36]: 16.9 µL/min/mg
- remaining at 2 h, 1 ug/ml [37]: 98.4%
- remaining at 0.75 h, 5 ug/ml [38]: 97.9%
- remaining at 1 h, 1 ug/ml [39]: 98.5%
- MIC [40]: 0.5 µg/mL (≈ 1.39 µM)
- MIC [41]: ≤ 0.004 µg/mL
- AUC(0-t) [42]: 2280 ng·h/mL
- Tmax [43]: 0.83 h
- Activity [44]: Dose-Dependent Effect

Source: ChEMBL document CHEMBL5370585, “Exploration and Biological Evaluation of 1,3-Diamino-7H-pyrrol[3,2-f]quinazoline Derivatives as Dihydrofolate Reductase Inhibitors” (J Med Chem, 2023)
